Assays:
[1] = tested on: ELL2; assay: Western blotting of ELL2 protein levels in 293T cells; type: cell-based, human; settings: 20 μM, 6 hr
Description: FIG. 10, related to FIG. 3. Disruption of SEC phenocopies slow Pol II mutants and reduces Pol II processivity. (A) Identification of the 1,057 genes with typical Pol II termination signals around the TES. Pol II signals from WT Pol II mutant expressing cells were K-means clustered into 5 groups with a window of 15 kb around the TES. The expressing genes from clusters with a typical Pol II termination signals were selected and plotted. (B) SEC inhibitor treatments of the WT Pol II mutant expressing cells lead to a Pol II phenotype similar to slower Pol II mutant expressing cells as viewed at the 3′-end of genes. (C-D) Time-dependent and dose-dependent shift of Pol II signals around the TES sites by KL-2 treatment (N=1,057). (E) Genome browser tracks of Serine 2 phosphorylated (Ser2P) Pol II at the SRSF1 gene in HEK293T cells treated with vehicle or SEC inhibitors. SEC inhibitor treatments result in increased Pol II occupancy at the promoter-proximal region and increased occupancy of Ser2P Pol II in the gene body. […] (H) SEC inhibition results in decreased protein levels of the SEC subunit ELL2. 293T cells were treated with 20 μM of the indicated inhibitors for 6 hr before harvesting cells for western blotting. (I-K) Depletion of ELL2 in HEK293T cells (I) results in apparent early termination of Pol II with reduced Pol II occupancy downstream of the PIM3 (J) and ACTB (K) annotated TES. […]

[2] = tested on: heat shock responsive genes in Drosophila S2 cells; assay: Heat shock induction in Drosophila S2 cells; type: cell-based; settings: 20 μM
Method: FIG. 5. SEC inhibitors block transcription elongation in SEC-dependent rapid response models. (A-B) Genome browser tracks of Pol II ChIP-seq at the FOS, HSPD1 and HSPE1 genes after 1 hr heat shock of HCT-116 cells treated with vehicle (DMSO) or the indicated SEC inhibitors. HCT-116 cells were pretreated with inhibitors for 5 hr at 37° C. before exchanging medium with conditioned 42° C. medium. Dark and light colors indicate the 37 and 42° C. conditions, respectively. (C) Genome-wide identification of heat shock-induced genes with fold change of reads per million in gene bodies and pausing index. Red dots are the 136 heat shock-induced genes according to Pol II signals (fold change of reads per million in gene bodies >1.5 and pausing index decreased >1.5-fold in the DMSO-treated condition). […] Box plot analysis depicts the log2 fold changes of reads per million in gene bodies (E) (y axis) after heat shock with pretreatment of vehicle or SEC inhibitors. […] S2 cells were heat shocked at 37° C. with and without 20 μM SEC inhibitors for 6 hr (left panel). The statistical analysis was performed with the Wilcoxon test.
Heat Shock Induction. Heat shock of mammalian cells was performed using ˜70-80% confluent HCT-116 cells by adding pre-heated (42° C.) conditioned media collected from identically growing cells (Mahat et al., 2016b). The heat shock cells were incubated at 42° C. for 1 hour. […]

[3] = tested on: MDA231-LM2 tumor; assay: MDA231-LM2 tumor model in athymic nude mice; type: in vivo; settings: 50 mg/kg once daily, 15 intraperitoneal injections
Method: FIG. 7. SEC disruptors delay tumor progression and improve survival of MDA231-LM2 tumor mice. (A) Schematic of the development of MDA231-LM2 tumors in athymic nude mice (Wang et al., 2017). 4×10^6 MDA231-LM2 cells were inoculated into the fat pads of nude mice. 17 days after injection, when the tumor reached 100 mm^3, mice were divided randomly into three groups. Drug treatments were performed with once daily with 50 mg/kg KL-1, 10 mg/kg KL-2 or PBS (vehicle) for a total of 15 intraperitoneal injections. (B-C) KL-1 and KL-2 delay the tumor growth in the MDA231-LM2 tumor mouse model. The average tumor sizes of the vehicle (n=6), KL-1 (n=7), and KL-2 (n=5) treated groups were plotted from day 5 to day 36 after inoculation (B). Representative tumors sizes are shown (C). […] A 2-way unpaired student's t-test was used for statistical analysis. (E) Kaplan-Meier survival curves of vehicle, KL-1, and KL-2 treated nude mice transplanted with 4×10^6MDA231-LM2 cells. 17 days after inoculation, vehicle (n=6), KL-1 (n=7), and KL-2 (n=5) were administered daily for 15 intraperitoneal injections. Mice were euthanized when the tumor size reached 1000 mm^3. Thep values were calculated using the log-rank test.
MDA231-LM2 Tumor Model. […] The tumor sizes were measured twice a week and the mice were euthanized when the tumor size reached 1000 mm^3.

`COc1cccc(C(=O)CC(=O)C(=O)Nc2cc(Cl)ccc2C)c1` [KL-1, N-(5-chloro-2-methylphenyl)-4-oxo-4-(3-methoxyphenyl)-2-oxobutanamide] was tested, and the ELL2 protein levels [1] was “led to reduced ELL2 protein levels”, the “heat shock induction of the 215 heat shock responsive genes” value [2] was “attenuated heat shock induction” and the “survival of the recipient mice” value [3] was “significantly extended survival”. For the same molecule, the “tumor progression (tumor sizes)” value [3] was “delayed tumor progression”.

— patent US11453640B2, “Small molecules for disrupting the super elongation complex and inhibiting transcription elongation for cancer therapy” (NORTHWESTERN UNIVERSITY, priority 2018, dated 2022)
